In patent US7982021B2, “Nucleic acid molecules encoding emission ratiometric indicators of phosphoinositides” (The Johns Hopkins University, priority 2006, dated 2011):

System: PIP3 and PI(3,4)P2
Test: FRET emission ratio imaging of InPAkt reporters in NIH3T3 cells upon growth factor stimulation
Format: cell-based
Details: for t1/2 of InPAkt response produced by the growth factor / time to reach plateau of InPAkt response produced by the growth factor / InPAkt emission ratio increase produced by the growth factor: NIH3T3 cells expressing InPAkt; for t1/2 of InPAkt response produced by the growth factor / time to reach plateau of InPAkt response produced by the growth factor: single ligand; for InPAkt emission ratio increase produced by the growth factor: single ligand: 50 ng/ml PDGF, 50 nM IGF-1 or 100 ng/ml insulin; for InPAkt emission ratio increase, sequential stimulation: agonists applied sequentially: insulin; for InPAkt emission ratio increase, sequential stimulation / t1/2 of InPAkt response, sequential stimulation / time of InPAkt emission ratio increase, sequential stimulation: then IGF-1, then PDGF; for t1/2 of InPAkt response, sequential stimulation / time of InPAkt emission ratio increase, sequential stimulation: insulin
Experimental: Cell Culture. HEK293 and NIH3T3 cells were plated onto sterilized glass coverslips in 35-mm dishes and grown to 50-90% confluency in DMEM (10% FBS) at 37° C. with 5% CO2. Cells were transfected with FUGENE®-6 (Roche), then serum starved for 24-36 h before imaging. Colocalization studies were performed by incubating transfected cells with Hoechst 33342 cell-permeable dyes (Molecular Probes) for staining nucleic acids.
Imaging. Cells were washed twice with Hanks' balanced salt solution buffer and maintained in the dark at room temperature with the addition of 50 ng/ml rat PDGF (Sigma), 100 ng/ml bovine insulin (Calbiochem), 50 nM IGF-1 (Sigma), or 20 μM LY294002 (Sigma) as described. Cells were imaged on a Zeiss Axiovert 200M microscope with a cooled CCD camera MicroMAX BFT512 (Roper Scientific, Trenton, N.J.) controlled by METAFLUOR 6.2 software (Universal Imaging, Downingtown, Pa.). Dual emission ratio imaging used a 420DF20 excitation filter, a 450DRLP dichroic mirror, and two emission filters (475DF40 for CFP and 535DF25 for YFP) alternated by a filter-changer Lambda 10-2 (Sutter Instruments, Novato, Calif.). Exposure time was 50-500 ms, and images were taken every 15-30 s. Fluorescence images were background-corrected by subtracting autofluorescence intensity of untransfected cells (or background with no cells) from the emission intensities of cells expressing fluorescent reporters. The ratios of yellow-to-cyan emissions were then calculated at different time points.
We next checked the ability of this chimera to detect changes in 3′ PIs in response to agonist stimulation. NIH3T3 cells expressing this construct were serum-starved then stimulated with 50 ng/ml platelet-derived growth factor (PDGF). Stimulation of endogenous PDGF receptor (PDGFR) generated a FRET increase, resulting in an increase in the ratio of yellow-to-cyan emissions (FIGS. 1D, 1E), which was detectable within several seconds and reached a plateau of 25.4±3.7% [average±std] […] The FRET change occurred in the plasma membrane and was accompanied by the translocation of the reporter (FIG. 1D), reiterating that 3′ PIs are mainly produced at the plasma membrane (22). To verify that the FRET response is caused by binding of PIP3 and PI(3,4)P2, we generated a variant of the reporter in which two critical residues in the PH domain, Arg23 and Arg25, which mainly contribute to D-3 phosphate recognition (20), are mutated.

[1] = NIH3T3 cells, PDGF first, followed by IGF-1

| Substance | t1/2 of InPAkt response produced by the growth factor [min] | time to reach plateau of InPAkt response produced by the growth factor [min] | InPAkt emission ratio increase produced by the growth factor | InPAkt emission ratio response, reversed order of ligand addition [1] | InPAkt emission ratio increase, sequential stimulation (NIH3T3 cells) | t1/2 of InPAkt response, sequential stimulation (NIH3T3 cells) [min] | time of InPAkt emission ratio increase, sequential stimulation (NIH3T3 cells) [min] | t1/2 of InPAkt response, reversed order of ligand addition [1] [min] | time of InPAkt response, reversed order of ligand addition [1] [min] |
| --- | --- | --- | --- | --- | --- | --- | --- | --- | --- |
| IGF-1: insulin-like growth factor 1 (Sigma) | 5.4 ± 0.4 | 10 to 12 | 6.5±0.8% | not enhanced | 6.8±0.9% | 5.2 ± 0.1 | 10 to 12 | – | – |
| PDGF | 3.45 ± 0.65 | 5 to 9 | 25.4±3.7% | 24.2 ± 1.5% | 14.6±1.4% | 3.2 ± 0.2 | 6 to 7 | 3.9 ± 0.2 | 7 to 9 |
| insulin: bovine insulin (Calbiochem) | – | – | did not generate any discernable response | – | did not generate any appreciable change | – | – | – | – |
